Assay results taken from PubChem BioAssay (NCI).
Where “and” joins values, the source holds several entries; their conditions need not be identical. Equal entries are not always repeated.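 Values below derive from 48-hour exposures of cells grown in 96-well plates, with endpoints linearly interpolated between the two concentrations bracketing the appropriate inhibition level. Abbreviation: GI50, concentration required for 50% inhibition of growth. TGI is the concentration that stops growth completely.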

What was measured:
Assay in all cases: growth of human tumour cells (NCI), 48 h
[1] = system: 786-0 renal
[2] = system: A498 renal
[3] = system: A549 NSCLC
[4] = system: ACHN renal
[5] = system: BT-549 breast
[6] = system: CAKI-1 renal
[7] = system: CCRF-CEM leukemia
[8] = system: COLO 205 colon
[9] = system: DU-145 prostate
[10] = system: EKVX NSCLC
[11] = system: HCC-2998 colon
[12] = system: HCT-116 colon
[13] = system: HCT-15 colon
[14] = system: HL-60(TB) leukemia
[15] = system: HOP-62 NSCLC
[16] = system: HOP-92 NSCLC
[17] = system: HS 578T breast
[18] = system: HT29 colon
[19] = system: IGROV1 ovarian
[20] = system: K-562 leukemia
[21] = system: KM12 colon
[22] = system: LOX IMVI melanoma
[23] = system: M14 melanoma
[24] = system: MALME-3M melanoma
[25] = system: MCF7 breast
[26] = system: MDA-MB-231 breast
[27] = system: MDA-MB-435
[28] = system: MOLT-4 leukemia
[29] = system: NCI-H226 lung
[30] = system: NCI-H23 lung
[31] = system: NCI-H522 lung
[32] = system: NCI/ADR-RES ovarian
[33] = system: OVCAR-3 ovarian
[34] = system: OVCAR-4 ovarian
[35] = system: OVCAR-5 ovarian
[36] = system: OVCAR-8 ovarian
[37] = system: PC-3 prostate
[38] = system: RPMI-8226 leukemia
[39] = system: RXF 393 renal
[40] = system: SF-268 CNS
[41] = system: SF-295 CNS
[42] = system: SF-539 CNS
[43] = system: SK-MEL-2 melanoma
[44] = system: SK-MEL-28 melanoma
[45] = system: SK-MEL-5 melanoma
[46] = system: SK-OV-3 ovarian
[47] = system: SN12C renal
[48] = system: SNB-19 CNS
[49] = system: SNB-75 CNS
[50] = system: SW-620 colon
[51] = system: T-47D breast
[52] = system: TK-10 renal
[53] = system: U251 CNS
[54] = system: UACC-257 melanoma
[55] = system: UACC-62 melanoma
[56] = system: UO-31 renal

CC1=C[C@H]2c3c(c(O)c(O)c4oc5cc(O)cc(O)c5c(=O)c34)[C@H](c3cc(O)c(O)c4oc5cc(O)cc(O)c5c(=O)c34)[C@H]2C(C)(C)C1
GI50 [1]: 2430 nM and 2160 nM
TGI [1]: 6660 nM and 6330 nM
GI50 [2]: 1890 nM
TGI [2]: 4630 nM
GI50 [3]: 686 nM and 1670 nM
TGI [3]: 6170 nM and 24900 nM
GI50 [4]: 1730 nM and 1840 nM
TGI [4]: 5270 nM and 10200 nM
GI50 [5]: 664 nM and 1870 nM
TGI [5]: 8480 nM and 6240 nM
GI50 [6]: 3450 nM and 2180 nM
TGI [6]: 11100 nM and 6530 nM
GI50 [7]: 641 nM
TGI [7]: 4100 nM
GI50 [8]: 2650 nM
TGI [8]: 7330 nM
GI50 [9]: 2480 nM and 2080 nM
TGI [9]: 11400 nM and 12800 nM
GI50 [10]: 2670 nM and 2200 nM
TGI [10]: 13700 nM and 8530 nM
GI50 [11]: 1910 nM and 2500 nM
TGI [11]: 3780 nM and 10000 nM
GI50 [12]: 462 nM and 947 nM
TGI [12]: 1870 nM and 2220 nM
GI50 [13]: 2750 nM and 1620 nM
TGI [13]: 16400 nM and 14000 nM
GI50 [14]: 2040 nM and 2100 nM
TGI [14]: 5720 nM and 10600 nM
GI50 [15]: 1530 nM
TGI [15]: 4000 nM and 6000 nM
GI50 [16]: 1940 nM and 1100 nM
TGI [16]: 4730 nM and 3330 nM
GI50 [17]: 2070 nM and 1490 nM
TGI [17]: 8900 nM and 7390 nM
GI50 [18]: 1490 nM and 2960 nM
TGI [18]: 5740 nM and 12000 nM
GI50 [19]: 1360 nM and 2050 nM
TGI [19]: 5260 nM and 17000 nM
GI50 [20]: 477 nM and 536 nM
TGI [20]: 10300 nM and > 100000 nM
GI50 [21]: 1040 nM and 1510 nM
TGI [21]: 3020 nM and 3570 nM
GI50 [22]: 1120 nM and 870 nM
TGI [22]: 2360 nM and 2190 nM
GI50 [23]: 1590 nM and 1620 nM
TGI [23]: 5190 nM and 4930 nM
GI50 [24]: 1730 nM and 1980 nM
TGI [24]: 4100 nM and 5310 nM
GI50 [25]: 725 nM
TGI [25]: 3880 nM
GI50 [26]: 1460 nM and 1830 nM
TGI [26]: 4010 nM and 5620 nM
GI50 [27]: 962 nM and 1290 nM
TGI [27]: 2670 nM and 3120 nM
GI50 [28]: 764 nM and 1920 nM
TGI [28]: 3310 nM and 12900 nM
GI50 [29]: 2160 nM and 1990 nM
TGI [29]: 5880 nM and 5250 nM
GI50 [30]: 1040 nM and 1210 nM
TGI [30]: 2950 nM and 3390 nM
GI50 [31]: 1300 nM and 1340 nM
TGI [31]: 3040 nM and 4560 nM
GI50 [32]: 8480 nM and 3630 nM
TGI [32]: 34900 nM and 25400 nM
GI50 [33]: 1700 nM and 2000 nM
TGI [33]: 4020 nM and 7540 nM
GI50 [34]: 3920 nM and 2900 nM
TGI [34]: 23200 nM and 16600 nM
GI50 [35]: 2710 nM and 2100 nM
TGI [35]: 10500 nM and 6580 nM
GI50 [36]: 2380 nM and 3390 nM
GI50 [37]: 1960 nM and 1800 nM
TGI [37]: 7410 nM and 5460 nM
GI50 [38]: 915 nM and 392 nM
TGI [38]: 4570 nM and 2040 nM
GI50 [39]: 1760 nM
TGI [39]: 4300 nM and 4040 nM
GI50 [40]: 2140 nM and 2090 nM
TGI [40]: 11300 nM and 11800 nM
GI50 [41]: 1980 nM and 1630 nM
TGI [41]: 6320 nM and 4960 nM
GI50 [42]: 1160 nM and 1690 nM
TGI [42]: 3890 nM and 4790 nM
GI50 [43]: 2410 nM
TGI [43]: 5170 nM and 6410 nM
GI50 [44]: 1500 nM and 1760 nM
TGI [44]: 3440 nM and 4280 nM
GI50 [45]: 1530 nM and 1430 nM
TGI [45]: 2890 nM and 2840 nM
GI50 [46]: 2050 nM and 2270 nM
TGI [46]: 5130 nM and 8280 nM
GI50 [47]: 1840 nM and 2110 nM
TGI [47]: 6880 nM and 8240 nM
GI50 [48]: 1330 nM and 1300 nM
TGI [48]: 3310 nM and 4930 nM
GI50 [49]: 1510 nM and 2080 nM
TGI [49]: 10500 nM and 12700 nM
GI50 [50]: 1260 nM and 1280 nM
TGI [50]: 4690 nM and 3500 nM
GI50 [51]: 2780 nM
TGI [51]: 26000 nM
GI50 [52]: 2120 nM and 3060 nM
TGI [52]: 10500 nM and 14800 nM
GI50 [53]: 789 nM and 1080 nM
TGI [53]: 3260 nM and 17000 nM
GI50 [54]: 3020 nM and 4300 nM
TGI [54]: 9780 nM and 21600 nM
GI50 [55]: 1180 nM and 1310 nM
TGI [55]: 2590 nM and 3070 nM
GI50 [56]: 1380 nM and 1550 nM
TGI [56]: 3280 nM and 8220 nM
